Test results published in patent US6376521B1, “A3 adenosine receptor antagonists” (The United States of America as represented by the …, priority 1998, dated 2002).
Where two headings read alike, the source gives them in different places.

Experiments:
[1] = molecular target: T1, A1 adenosine receptors (Rattus norvegicus, UniProt P25099); test: Displacement of specific [3H]R-PIA binding in rat brain membranes; conditions: Table 2, compounds 33-58; [3H]R-PIA, rat brain membranes, n = 3-5; read-out: rA1 Ki ± S.E.M.
T1 construct: from tissue
T1 sequence (P25099 1-326): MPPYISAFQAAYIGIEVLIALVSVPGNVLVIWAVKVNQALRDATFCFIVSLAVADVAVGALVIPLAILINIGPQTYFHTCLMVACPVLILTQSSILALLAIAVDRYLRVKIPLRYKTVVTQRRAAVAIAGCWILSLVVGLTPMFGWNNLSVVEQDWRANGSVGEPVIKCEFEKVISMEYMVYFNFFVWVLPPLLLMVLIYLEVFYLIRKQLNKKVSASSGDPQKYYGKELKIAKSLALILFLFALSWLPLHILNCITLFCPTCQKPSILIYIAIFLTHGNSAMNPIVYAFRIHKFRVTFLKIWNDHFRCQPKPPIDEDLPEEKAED

[2] = molecular target: T2, human A3 receptors (Homo sapiens, UniProt P0DMS8); test: Displacement of specific [125I]AB-MECA binding at human A3 receptors expressed in HEK cells, in membranes; conditions: for Ki: Table 2, compounds 33-58, [125I]AB-MECA, HEK cell membranes, n = 3-4, read-out: hA3 Ki ± S.E.M.; for rA1/hA3: Table 2, ratio of affinities rat A1 vs human A3
T2 construct: expressed in transfected cells
T2 sequence (P0DMS8 1-318): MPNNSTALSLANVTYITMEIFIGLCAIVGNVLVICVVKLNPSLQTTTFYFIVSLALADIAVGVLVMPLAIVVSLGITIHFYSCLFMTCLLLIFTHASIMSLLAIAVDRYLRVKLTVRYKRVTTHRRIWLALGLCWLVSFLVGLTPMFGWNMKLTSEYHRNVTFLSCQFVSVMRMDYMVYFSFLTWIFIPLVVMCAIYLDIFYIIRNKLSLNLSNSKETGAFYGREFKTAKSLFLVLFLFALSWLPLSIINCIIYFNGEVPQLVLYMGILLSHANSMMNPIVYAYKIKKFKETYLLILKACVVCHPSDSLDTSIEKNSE

[3] = molecular target: T3, rat A3 receptors (Rattus norvegicus, UniProt P28647); test: Displacement of specific [125I]AB-MECA binding at rat A3 receptors stably expressed in CHO cells; conditions: Table 4; for Ki: [125I]AB-MECA, CHO cells, n = 3-5, read-out: rA3 Ki; for rA3/hA3: ratio of affinities at rat vs. human A3 receptors; for rA1/rA3: ratio of affinities rat A1 vs rat A3
T3 construct: expressed in transfected cells
T3 sequence (P28647 1-320): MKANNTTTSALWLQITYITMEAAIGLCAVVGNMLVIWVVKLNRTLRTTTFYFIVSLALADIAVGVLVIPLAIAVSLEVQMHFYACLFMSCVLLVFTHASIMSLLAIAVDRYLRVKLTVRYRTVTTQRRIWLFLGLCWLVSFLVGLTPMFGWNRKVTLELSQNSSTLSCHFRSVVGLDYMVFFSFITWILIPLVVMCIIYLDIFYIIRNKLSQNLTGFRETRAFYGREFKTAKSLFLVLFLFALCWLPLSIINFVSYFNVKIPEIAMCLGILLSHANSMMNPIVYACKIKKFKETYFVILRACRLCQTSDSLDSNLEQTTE

[4] = molecular target: T4, A2A adenosine receptors (Rattus norvegicus, UniProt P30543); test: Displacement of specific [3H]CGS 21680 binding in rat striatal membranes; conditions: for Ki: Table 2, compounds 33-58, [3H]CGS 21680, rat striatal membranes, n = 3-6, read-out: rA2A Ki ± S.E.M.
T4 construct: from tissue
T4 sequence (P30543 whole entry): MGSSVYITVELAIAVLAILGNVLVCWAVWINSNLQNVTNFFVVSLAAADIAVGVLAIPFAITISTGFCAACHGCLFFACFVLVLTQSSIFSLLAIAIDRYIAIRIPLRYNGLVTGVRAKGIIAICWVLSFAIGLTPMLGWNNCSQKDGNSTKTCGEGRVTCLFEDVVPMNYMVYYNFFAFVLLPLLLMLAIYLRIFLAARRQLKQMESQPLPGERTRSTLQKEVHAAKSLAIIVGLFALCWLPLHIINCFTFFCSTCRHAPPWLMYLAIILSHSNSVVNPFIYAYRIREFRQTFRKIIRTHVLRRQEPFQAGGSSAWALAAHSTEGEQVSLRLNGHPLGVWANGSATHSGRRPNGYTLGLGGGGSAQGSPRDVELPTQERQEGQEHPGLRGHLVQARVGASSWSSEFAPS

[5] = molecular target: T4, A2A adenosine receptors; conditions: Table 3, cited from earlier work; for Ki: compounds 59, 68, values taken from van Rhee et al. 1996 and Jiang et al. 1997, read-out: rA2A Ki ± S.E.M.

Structure (SMILES) | Ki [1] [µM] | Ki [2] [µM] | rA1/hA3 [2] | Ki [3] [µM] | rA3/hA3 [3] | rA1/rA3 [3] | Ki [4] [µM] | rA2A displacement of specific binding (class d) ([4]; Table 2, at 10^−4 M) | Ki [5] [µM] | rA2A displacement of specific binding (class d) ([5]; at 10^−4 M, compound 69, value taken from the literature)
CCOC(=O)c1c(-c2cccc(Cl)c2)nc(CC)c(C(=O)SCC)c1CC [Compound 51, 5-Ethyl 2,4-diethyl-3-(ethylsulfanylcarbonyl)-6-(m-chlorophenyl)pyridine-5-carboxylate] | 8.2 ± 2.96 | 0.0134 ± 0.0015 | 610 | 0.44 ± 0.033 | 33 | 19 | 8.91 ± 0.97 |  |  | 
CCOC(=O)c1c(C2CCCC2)nc(CC)c(C(=O)SCC)c1CC [Compound 52, 5-Ethyl 2,4-diethyl-3-(ethylsulfanylcarbonyl)-6-cyclopentylpyridine-5-carboxylate] | 55.3 ± 14.7 | 4.01 ± 2.49 | 14 | 2.8 ± 0.22 | 0.83 | >20 | 26.1 ± 6.2 |  |  | 
CCCSC(=O)c1c(CC)nc(-c2ccccc2)c(C(=O)OCC)c1CC [Compound 53, 5-Ethyl 2,4-diethyl-3-propylsulfanylcarbonyl-6-phenylpyridine-5-carboxylate] | 8.22 ± 1.21 | 0.0159 ± 0.0054 | 520 | 0.294 ± 0.006 | 18 | 28 | 15.7 ± 4.4 |  |  | 
CCCc1nc(-c2ccccc2)c(C(=O)OCC)c(CC)c1C(=O)SCC [Compound 55, 5-Ethyl 2-propyl-4-ethyl-3-(ethylsulfanylcarbonyl)-6-phenylpyridine-5-carboxylate] | 16.7 ± 3 | 0.0333 ± 0.0107 | 500 | 0.59 ± 0.04 | 18 | 28 | 2.82 ± 0.82 |  |  | 
CCCCc1nc(-c2ccccc2)c(C(=O)OCC)c(CC)c1C(=O)SCC [Compound 57, 5-Ethyl 2-butyl-4-ethyl-3-(ethylsulfanylcarbonyl)-6-phenylpyridine-5-carboxylate] | 40.3 ± 7.4 | 0.035 ± 0.0091 | 1200 | 2.26 ± 0.05 | 64 | 18 |  | d (10^−4) (Displacement of <10% of specific binding at the indicated concentration (M).) |  | 
CCOC(=O)C1=C(C)NC(c2ccccc2)=C(C(=O)OCC)C1C (centres unmarked) [Compound 59] |  |  |  |  |  |  |  |  | 35.9 ± 15.3 | 
CCOC(=O)C1=C(C)NC(c2ccccc2)=C(C(=O)OCC)C1C=Cc1ccccc1 (centres unmarked) [Compound 68] |  |  |  |  |  |  |  |  | 4.77 ± 0.29 | 
CCOC(=O)C1=C(C)NC(c2ccccc2)=C(C(=O)OCc2ccccc2)C1C#Cc1ccccc1 (centres unmarked) [Compound 69] |  |  |  |  |  |  |  |  |  | d (10^−4) (Displacement of < 10% of specific binding at the indicated concentration (M).)
